Structures are written as SMILES. Counter-ions that a name gives are not always drawn.

Sequence of Proton Pump (H^+/K^+-ATPase) (P19156 2-1034 limits assumed): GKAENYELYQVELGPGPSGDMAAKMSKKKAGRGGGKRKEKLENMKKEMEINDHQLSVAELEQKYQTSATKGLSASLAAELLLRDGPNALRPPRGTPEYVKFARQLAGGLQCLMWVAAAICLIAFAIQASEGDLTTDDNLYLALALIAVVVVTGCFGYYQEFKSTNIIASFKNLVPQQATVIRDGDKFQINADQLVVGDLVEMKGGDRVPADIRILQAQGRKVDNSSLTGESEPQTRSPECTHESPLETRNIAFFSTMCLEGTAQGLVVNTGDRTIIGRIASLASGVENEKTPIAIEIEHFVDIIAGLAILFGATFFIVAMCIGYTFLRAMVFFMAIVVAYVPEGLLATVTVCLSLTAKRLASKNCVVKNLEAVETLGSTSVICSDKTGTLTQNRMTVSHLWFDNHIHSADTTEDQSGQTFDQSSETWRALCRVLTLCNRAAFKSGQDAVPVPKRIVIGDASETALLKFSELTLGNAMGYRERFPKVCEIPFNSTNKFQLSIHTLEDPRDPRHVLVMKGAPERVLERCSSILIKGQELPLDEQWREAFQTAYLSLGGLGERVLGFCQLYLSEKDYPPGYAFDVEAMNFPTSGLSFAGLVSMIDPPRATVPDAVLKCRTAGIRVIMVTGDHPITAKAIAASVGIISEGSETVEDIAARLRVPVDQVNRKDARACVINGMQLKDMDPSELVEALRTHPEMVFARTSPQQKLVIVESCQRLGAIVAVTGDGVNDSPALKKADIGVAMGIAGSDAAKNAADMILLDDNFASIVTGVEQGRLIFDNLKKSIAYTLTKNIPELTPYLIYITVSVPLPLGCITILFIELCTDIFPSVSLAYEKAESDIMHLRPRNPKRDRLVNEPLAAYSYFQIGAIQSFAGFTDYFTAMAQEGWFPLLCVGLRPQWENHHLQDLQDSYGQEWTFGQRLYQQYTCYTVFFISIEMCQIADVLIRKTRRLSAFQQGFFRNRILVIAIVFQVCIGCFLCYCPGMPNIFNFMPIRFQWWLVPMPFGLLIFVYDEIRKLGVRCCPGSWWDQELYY
Sequence of Proton Pump (H^+/K^+-ATPase) (P18434 whole entry partner): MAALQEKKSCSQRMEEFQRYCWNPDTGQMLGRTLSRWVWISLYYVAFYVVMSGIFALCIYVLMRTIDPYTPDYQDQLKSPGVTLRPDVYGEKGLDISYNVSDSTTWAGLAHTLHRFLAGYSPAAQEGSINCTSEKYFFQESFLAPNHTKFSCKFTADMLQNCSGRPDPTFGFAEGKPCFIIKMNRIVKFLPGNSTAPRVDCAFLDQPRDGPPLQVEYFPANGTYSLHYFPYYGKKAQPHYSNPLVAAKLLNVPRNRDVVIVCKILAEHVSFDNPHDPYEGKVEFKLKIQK

The assay concerns the target Proton Pump (H^+/K^+-ATPase) (Sus scrofa, UniProt P19156). The assay is described as follows: Inhibitory effects on proton pump (H^+/K^+-ATPase) activity. The assay is classed as biochemical. The note with it: hog gastric vesicles; K^+ stimulated H^+/K^+-ATPase activity; 30 minutes at 37° C.
The term IC50 denotes the midpoint of a concentration-inhibition curve. High values mean weaker potency in that assay, low ones greater potency in that assay. Compound `COc1cccc(Cn2c(C)c(C)c3cc(C(=O)N4CCC(C)CC4)nc(N4CCc5ccccc5C4)c32)c1` [Example 823, [7-(3,4-dihydro-1H-isoquinolin-2-yl)-1-(3-methoxybenzyl)-2,3-dimethyl-1H-pyrrolo[2,3-c]pyridin-5-yl]-(4-methylpiperidin-1-yl)-methanone hydrochloride] came in with an IC50 of 216 nM.

In turn, `Cc1c(C)n(CC(C)C)c2c(-c3ccc(Cl)cc3)nccc12` [Example 304, 7-(4-chlorophenyl)-1-isobutyl-2,3-dimethyl-1H-pyrrolo[2,3-c]pyridine hydrochloride] returned an IC50 of 915 nM. The same measure for `Cc1c(C)n(Cc2cccc(Cl)c2)c2c(N3CCc4ccccc4C3)nc(N)cc12` [Example 845, 1-(3-chlorobenzyl)-7-(3,4-dihydro-1H-isoquinolin-2-yl)-2,3-dimethyl-1H-pyrrolo[2,3-c]pyridin-5-amine hydrochloride]: 287 nM; for `Cc1c(C)n(Cc2cccc(Cl)c2)c2c(N3CCc4ccccc4C3)nc(-c3nnn[nH]3)cc12` [Example 852, 2-[1-(3-chlorobenzyl)-2,3-dimethyl-5-(1H-tetrazol-5-yl)-1H-pyrrolo[2,3-c]pyridin-7-yl]-1,2,3,4-tetrahydroisoquinoline]: 427 nM. The result for `Cc1c(C)n(Cc2cccc(Cl)c2)c2c(N3CCc4ccccc4C3)nc(C(=O)N3CCCCC3)cc12` [Example 799, [1-(3-chlorobenzyl)-7-(3,4-dihydro-1H-isoquinolin-2-yl)-2,3-dimethyl-1H-pyrrolo[2,3-c]pyridin-5-yl]-(piperidin-1-yl)-methanone hydrochloride] reads 164 nM. As to `C=CCn1c(C)c(C)c2cc(C(=O)NCc3ccc4c(c3)OCO4)nc(N3CCc4ccccc4C3)c21` [Example 760, 1-allyl-7-(3,4-dihydro-1H-isoquinolin-2-yl)-2,3-dimethyl-N-(benzo[1,3]dioxol-5-ylmethyl)-1H-pyrrolo[2,3-c]pyridin-5-carboxamide hydrochloride], half-maximal inhibition (IC50) was put at 373 nM.

In turn, `COc1ccc(-c2nccc3c(C)c(C)n(Cc4ccccc4F)c23)cc1` [Example 353, 1-(2-fluorobenzyl)-7-(4-methoxyphenyl)-2,3-dimethyl-1H-pyrrolo[2,3-c]pyridine hydrochloride] registered an IC50 of 490 nM. Regarding `Cc1[nH]c2c(N3CCc4ccccc4C3)nc(C=O)cc2c1C` [Example 862, 7-(3,4-dihydro-1H-isoquinolin-2-yl)-2,3-dimethyl-1H-pyrrolo[2,3-c]pyridin-5-carbaldehyde], half-maximal inhibition (IC50) was put at 403 nM.

`Cc1c(C)n(Cc2cccc(F)c2)c2c(N3CCc4ccccc4C3)nc(CNC3CC3)cc12` [Example 871, N-[7-(3,4-dihydro-1H-isoquinolin-2-yl)-1-(3-fluorobenzyl)-2,3-dimethyl-1H-pyrrolo[2,3-c]pyridin-5-ylmethyl]-cyclopropylamine hydrochloride] yielded an IC50 of 37 nM. `C=CCn1c(C)c(C)c2ccnc(CCc3ccccc3)c21` [Example 448, 1-allyl-2,3-dimethyl-7-phenethyl-1H-pyrrolo[2,3-c]pyridine hydrochloride] displayed an IC50 of 230 nM. `COc1cccc(Cn2c(C)c(C)c3ccnc(-c4ccc(SC)cc4)c32)c1` [Example 266, 1-(3-methoxybenzyl)-2,3-dimethyl-7-(4-methylsulfanylphenyl)-1H-pyrrolo[2,3-c]pyridine hydrochloride] gave an IC50 of 140 nM. The result for `Cc1c(C)n(CC2CC2)c2c(N(C)Cc3ccc(F)cc3)nccc12` [Example 144, 1-cyclopropylmethyl-7-[N-(4-fluorobenzyl)-N-methyl]amino-2,3-dimethyl-1H-pyrrolo[2,3-c]pyridine hydrochloride] reads 200 nM. The same measure for `C=CCn1c(C)c(C)c2ccnc(N3CCc4ccccc4C3C3CC3)c21` (stereo not shown) [Example 570, 2-(1-allyl-2,3-dimethyl-1H-pyrrolo[2,3-c]pyridin-7-yl)-1-cyclopropyl-1,2,3,4-tetrahydroisoquinoline hydrochloride]: 120 nM.

Source of the values: patent US7662832B2, “Pyrrolo[2,3-c]pyridine derivatives and processes for the preparation thereof” (priority 2004, dated 2010).
